Reference: ChEMBL document CHEMBL2440005, “Discovery and structure-activity relationships of 6-(benzoylamino)benzoxaboroles as orally active anti-inflammatory agents” (Bioorg Med Chem Lett, 2013)
The source made the active and inactive calls. No cut-off for these calls is given here.

Legend:
[1] = target: Serine/threonine-protein kinase TBK1 (Homo sapiens) (UniProt Q9UHD2); assay: Inhibition of TBK1 (unknown origin) at 30 uM
[2] = target: Protein kinase C beta type (Homo sapiens) (UniProt P05771); assay: Inhibition of PKCbeta (unknown origin) at 30 uM
[3] = AUC (0 to 24 hrs) in mouse at 2 mg/kg, iv; format: ADME, organism-based; design: time < 24 hr, dose 2 mg/kg, route intravenous; conditions: plasma
[4] = system: Mus musculus; assay: Antiinflammatory activity in collagen-induced arthritis mouse model at 30 mg/kg, po qd administered every other day for 20 days relative to vehicle-treated control; format: functional; conditions: 480 h
[5] = system: Mus musculus; assay: Antiinflammatory activity in mouse assessed as inhibition of LPS-induced TNF-alpha production at 100 mg/kg, po administered 1 hr prior to LPS challenge measured after 1 hr; format: functional, organism-based; design: dose 100 mg/kg
[6] = target: Prostaglandin G/H synthase 2 (Homo sapiens) (UniProt P35354); assay: Inhibition of COX2 (unknown origin) up to 25 uM
[7] = target: Protein kinase C alpha type (Homo sapiens) (UniProt P17252); assay: Inhibition of PKCalpha (unknown origin) at 30 uM
[8] = system: Mus musculus; assay: Antiinflammatory activity in mouse assessed as inhibition of LPS-induced TNF-alpha production at 30 mg/kg, po administered 1 hr prior to LPS challenge measured after 1 hr; format: functional
[9] = system: PBMC; assay: Antiinflammatory activity in human PBMC assessed as inhibition of LPS-induced IL-1beta release incubated for 15 mins prior to LPS-challenge measured after 24 hrs by HTRF assay; format: functional, cell-based
[10] = system: Mus musculus; assay: Antiinflammatory activity in mouse assessed as inhibition of LPS-induced IL-6 production at 100 mg/kg, po administered 1 hr prior to LPS challenge measured after 1 hr; format: functional, organism-based; design: dose 100 mg/kg
[11] = target: MAP kinase-activated protein kinase 5 (Homo sapiens) (UniProt Q8IW41); assay: Inhibition of MAPKAPK5 (unknown origin) at 30 uM
[12] = system: Mus musculus; assay: Toxicity in mouse assessed as change in body weight at 30 mg/kg, po qd administered every other day for 20 days relative to untreated control; format: organism-based; design: dose 30 mg/kg, route oral; conditions: in vivo, 480 h
[13] = target: Tyrosine-protein kinase JAK2 (Homo sapiens) (UniProt O60674); assay: Inhibition of JAK2 (unknown origin) at 30 uM
[14] = target: Mitogen-activated protein kinase 1 (Homo sapiens) (UniProt P28482); assay: Inhibition of ERK2 (unknown origin) at 30 uM
[15] = Terminal half life in mouse at 4 mg/kg, po; format: ADME, organism-based; design: dose 4 mg/kg, route oral; conditions: in vivo, read-out: beta t1/2 (converted)
[16] = target: Mitogen-activated protein kinase 10 (Homo sapiens) (UniProt P53779); assay: Inhibition of JNK3 (unknown origin) at 30 uM
[17] = organism: Homo sapiens; assay: Inhibition of PKA (unknown origin) at 30 uM
[18] = target: Interleukin-1 receptor-associated kinase 4 (Homo sapiens) (UniProt Q9NWZ3); assay: Inhibition of IRAK4 (unknown origin) at 30 uM
[19] = target: Mitogen-activated protein kinase 3 (Homo sapiens) (UniProt P27361); assay: Inhibition of ERK1 (unknown origin) at 30 uM
[20] = target: RAC-gamma serine/threonine-protein kinase (Homo sapiens) (UniProt Q9Y243); assay: Inhibition of AKT3 (unknown origin) at 30 uM
[21] = target: Tyrosine-protein kinase JAK1 (Homo sapiens) (UniProt P23458); assay: Inhibition of JAK1 (unknown origin) at 30 uM
[22] = target: MAP kinase-activated protein kinase 3 (Homo sapiens) (UniProt Q16644); assay: Inhibition of MAPKAPK3 (unknown origin) at 30 uM
[23] = target: Mitogen-activated protein kinase kinase kinase 8 (Homo sapiens) (UniProt P41279); assay: Inhibition of MAP3K8 (unknown origin) at 30 uM
[24] = target: MAP kinase-activated protein kinase 2 (Homo sapiens) (UniProt P49137); assay: Inhibition of MAPKAPK2 (unknown origin) at 30 uM
[25] = target: Dual specificity mitogen-activated protein kinase kinase 4 (Homo sapiens) (UniProt P45985); assay: Inhibition of MKK4 (unknown origin) at 30 uM
[26] = target: Dual specificity mitogen-activated protein kinase kinase 6 (Homo sapiens) (UniProt P52564); assay: Inhibition of MKK6 (unknown origin) at 30 uM
[27] = target: Prostaglandin G/H synthase 1 (Homo sapiens) (UniProt P23219); assay: Inhibition of COX1 (unknown origin) up to 25 uM
[28] = target: Phosphatidylinositol 4,5-bisphosphate 3-kinase catalytic subunit beta isoform (Homo sapiens) (UniProt P42338); assay: Inhibition of PI3Kbeta (unknown origin) at 30 uM
[29] = target: Inhibitor of nuclear factor kappa-B kinase subunit beta (Homo sapiens) (UniProt O14920); assay: Inhibition of IKKbeta (unknown origin) at 30 uM
[30] = Cmax in mouse at 4 mg/kg, po; format: ADME, organism-based; design: dose 4 mg/kg, route oral; conditions: in vivo
[31] = target: RAC-alpha serine/threonine-protein kinase (Homo sapiens) (UniProt P31749); assay: Inhibition of AKT1 (unknown origin) at 30 uM
[32] = target: Phosphatidylinositol 4,5-bisphosphate 3-kinase catalytic subunit gamma isoform (Homo sapiens) (UniProt P48736); assay: Inhibition of PI3Kgamma (unknown origin) at 30 uM
[33] = target: Mitogen-activated protein kinase kinase kinase 7 (Homo sapiens) (UniProt O43318); assay: Inhibition of TAK1 (unknown origin) at 30 uM
[34] = target: Mitogen-activated protein kinase 12 (Homo sapiens) (UniProt P53778); assay: Inhibition of p38gamma (unknown origin) at 30 uM
[35] = AUC (0 to 24 hrs) in mouse at 4 mg/kg, po; format: ADME, organism-based; design: time < 24 hr, dose 4 mg/kg, route oral; conditions: plasma
[36] = target: Rho-associated protein kinase 2 (Homo sapiens) (UniProt O75116); assay: Inhibition of ROCK2 (unknown origin) at 30 uM
[37] = system: Mus musculus; assay: Antiinflammatory activity in po dosed mouse assessed as inhibition of LPS-induced TNF-alpha production administered 1 hr prior to LPS challenge measured after 1 hr; format: functional, organism-based
[38] = target: Phosphatidylinositol 4,5-bisphosphate 3-kinase catalytic subunit delta isoform (Homo sapiens) (UniProt O00329); assay: Inhibition of PI3Kdelta (unknown origin) at 30 uM
[39] = target: Mitogen-activated protein kinase 11 (Homo sapiens) (UniProt Q15759); assay: Inhibition of p38beta (unknown origin) at 30 uM
[40] = target: Mitogen-activated protein kinase 13 (Homo sapiens) (UniProt O15264); assay: Inhibition of p38delta (unknown origin) at 30 uM
[41] = target: Mitogen-activated protein kinase 14 (Homo sapiens) (UniProt Q16539); assay: Inhibition of p38alpha (unknown origin) at 30 uM
[42] = system: Mus musculus; assay: Antiinflammatory activity in mouse assessed as inhibition of LPS-induced TNF-alpha production at 10 mg/kg, po administered 1 hr prior to LPS challenge measured after 1 hr; format: functional
[43] = system: Mus musculus; assay: Antiinflammatory activity in mouse assessed as inhibition of LPS-induced IL-6 production at 30 mg/kg, po administered 1 hr prior to LPS challenge measured after 1 hr; format: functional

MAP kinase-activated protein kinase 5 (Homo sapiens), sequence (Q8IW41 whole entry): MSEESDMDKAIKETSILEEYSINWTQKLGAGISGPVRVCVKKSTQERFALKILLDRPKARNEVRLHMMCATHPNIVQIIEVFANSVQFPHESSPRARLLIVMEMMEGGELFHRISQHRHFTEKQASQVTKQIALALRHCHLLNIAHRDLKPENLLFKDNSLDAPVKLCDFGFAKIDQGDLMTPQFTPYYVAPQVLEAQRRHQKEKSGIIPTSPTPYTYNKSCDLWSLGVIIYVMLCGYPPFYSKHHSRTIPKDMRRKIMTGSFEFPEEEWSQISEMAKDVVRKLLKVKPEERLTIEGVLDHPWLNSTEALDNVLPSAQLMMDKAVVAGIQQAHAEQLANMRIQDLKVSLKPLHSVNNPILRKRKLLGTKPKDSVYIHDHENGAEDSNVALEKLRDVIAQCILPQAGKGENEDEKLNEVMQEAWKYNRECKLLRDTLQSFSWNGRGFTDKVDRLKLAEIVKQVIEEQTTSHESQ
Mitogen-activated protein kinase 12 (Homo sapiens), sequence (P53778 whole entry): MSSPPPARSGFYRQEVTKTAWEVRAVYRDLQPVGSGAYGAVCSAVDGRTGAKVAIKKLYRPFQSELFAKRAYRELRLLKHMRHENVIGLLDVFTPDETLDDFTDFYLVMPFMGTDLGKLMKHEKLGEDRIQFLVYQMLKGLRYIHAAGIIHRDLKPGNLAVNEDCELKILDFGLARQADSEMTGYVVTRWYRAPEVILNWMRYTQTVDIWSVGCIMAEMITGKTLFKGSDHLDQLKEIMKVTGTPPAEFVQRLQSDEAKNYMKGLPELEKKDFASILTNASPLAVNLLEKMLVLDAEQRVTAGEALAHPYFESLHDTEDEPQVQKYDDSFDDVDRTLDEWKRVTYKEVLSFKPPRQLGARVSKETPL
Tyrosine-protein kinase JAK1 (Homo sapiens), sequence (P23458 whole entry): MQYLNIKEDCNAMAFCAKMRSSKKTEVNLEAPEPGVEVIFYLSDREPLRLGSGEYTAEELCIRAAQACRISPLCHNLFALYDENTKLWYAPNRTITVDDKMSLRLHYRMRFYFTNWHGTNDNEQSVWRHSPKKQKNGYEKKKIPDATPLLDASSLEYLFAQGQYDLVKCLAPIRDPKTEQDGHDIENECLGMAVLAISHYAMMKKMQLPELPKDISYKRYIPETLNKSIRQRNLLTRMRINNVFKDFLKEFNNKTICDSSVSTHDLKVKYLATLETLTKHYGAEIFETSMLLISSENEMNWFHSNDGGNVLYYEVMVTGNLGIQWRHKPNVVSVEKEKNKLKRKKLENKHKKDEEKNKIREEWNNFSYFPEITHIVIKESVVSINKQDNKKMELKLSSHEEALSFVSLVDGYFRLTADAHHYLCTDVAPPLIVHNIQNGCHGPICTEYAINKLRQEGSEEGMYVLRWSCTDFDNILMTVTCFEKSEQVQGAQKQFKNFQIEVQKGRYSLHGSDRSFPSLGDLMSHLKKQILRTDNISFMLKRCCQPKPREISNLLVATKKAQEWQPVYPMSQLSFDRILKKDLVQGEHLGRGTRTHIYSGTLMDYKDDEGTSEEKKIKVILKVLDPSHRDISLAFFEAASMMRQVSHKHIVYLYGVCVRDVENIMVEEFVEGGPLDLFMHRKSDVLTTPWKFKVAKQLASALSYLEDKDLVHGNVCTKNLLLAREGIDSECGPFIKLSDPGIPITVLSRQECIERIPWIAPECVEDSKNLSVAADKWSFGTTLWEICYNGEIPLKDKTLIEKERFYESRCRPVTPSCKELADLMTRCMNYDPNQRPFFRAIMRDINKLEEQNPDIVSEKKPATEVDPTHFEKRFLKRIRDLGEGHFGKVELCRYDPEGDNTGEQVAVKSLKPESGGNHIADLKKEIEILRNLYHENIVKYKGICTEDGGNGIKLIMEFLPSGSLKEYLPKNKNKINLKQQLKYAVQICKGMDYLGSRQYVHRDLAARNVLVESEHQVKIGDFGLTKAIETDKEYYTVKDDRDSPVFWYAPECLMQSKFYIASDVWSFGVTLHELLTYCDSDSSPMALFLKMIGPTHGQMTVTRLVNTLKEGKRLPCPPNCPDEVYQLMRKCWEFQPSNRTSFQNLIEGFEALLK
MAP kinase-activated protein kinase 2 (Homo sapiens), sequence (P49137 whole entry, looked up): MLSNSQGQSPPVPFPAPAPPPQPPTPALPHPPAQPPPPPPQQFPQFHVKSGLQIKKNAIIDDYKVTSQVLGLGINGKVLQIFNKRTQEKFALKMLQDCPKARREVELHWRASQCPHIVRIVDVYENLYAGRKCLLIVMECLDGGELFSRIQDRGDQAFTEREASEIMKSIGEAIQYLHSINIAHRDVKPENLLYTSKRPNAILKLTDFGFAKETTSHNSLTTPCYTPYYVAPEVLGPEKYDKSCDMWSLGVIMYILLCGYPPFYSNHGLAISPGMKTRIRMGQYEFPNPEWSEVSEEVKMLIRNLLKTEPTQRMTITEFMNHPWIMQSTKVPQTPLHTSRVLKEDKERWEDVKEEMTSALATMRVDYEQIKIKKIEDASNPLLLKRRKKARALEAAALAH
Prostaglandin G/H synthase 2 (Homo sapiens), sequence (P35354 whole entry): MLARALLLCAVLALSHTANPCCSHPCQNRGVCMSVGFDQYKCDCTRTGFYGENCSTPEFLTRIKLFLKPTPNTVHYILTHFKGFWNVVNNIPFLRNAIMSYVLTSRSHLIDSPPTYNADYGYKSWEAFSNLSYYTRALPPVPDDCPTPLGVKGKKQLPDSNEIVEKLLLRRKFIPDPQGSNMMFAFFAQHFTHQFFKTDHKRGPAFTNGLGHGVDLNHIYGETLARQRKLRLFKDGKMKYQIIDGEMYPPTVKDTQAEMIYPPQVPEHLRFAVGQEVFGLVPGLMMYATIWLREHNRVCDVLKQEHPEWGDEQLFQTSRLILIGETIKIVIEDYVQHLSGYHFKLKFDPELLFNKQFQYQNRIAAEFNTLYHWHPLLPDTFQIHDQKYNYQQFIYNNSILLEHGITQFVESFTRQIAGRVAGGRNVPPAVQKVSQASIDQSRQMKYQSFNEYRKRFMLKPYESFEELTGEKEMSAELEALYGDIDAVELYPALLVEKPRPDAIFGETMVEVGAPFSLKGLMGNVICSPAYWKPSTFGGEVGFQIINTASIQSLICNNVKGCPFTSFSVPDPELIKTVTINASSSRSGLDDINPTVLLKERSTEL
MAP kinase-activated protein kinase 3 (Homo sapiens), sequence (Q16644 whole entry, looked up): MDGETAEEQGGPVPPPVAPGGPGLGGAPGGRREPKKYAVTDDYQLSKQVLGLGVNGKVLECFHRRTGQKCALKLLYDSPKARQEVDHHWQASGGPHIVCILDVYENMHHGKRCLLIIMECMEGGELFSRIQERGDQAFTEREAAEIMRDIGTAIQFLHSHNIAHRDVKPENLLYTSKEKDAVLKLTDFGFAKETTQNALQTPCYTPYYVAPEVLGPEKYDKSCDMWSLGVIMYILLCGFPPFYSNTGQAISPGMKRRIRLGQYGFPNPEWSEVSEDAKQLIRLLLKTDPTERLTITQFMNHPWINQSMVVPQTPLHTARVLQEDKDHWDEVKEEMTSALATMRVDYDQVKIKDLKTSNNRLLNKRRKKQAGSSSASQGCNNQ
Prostaglandin G/H synthase 1 (Homo sapiens), sequence (P23219 whole entry, canonical isoform): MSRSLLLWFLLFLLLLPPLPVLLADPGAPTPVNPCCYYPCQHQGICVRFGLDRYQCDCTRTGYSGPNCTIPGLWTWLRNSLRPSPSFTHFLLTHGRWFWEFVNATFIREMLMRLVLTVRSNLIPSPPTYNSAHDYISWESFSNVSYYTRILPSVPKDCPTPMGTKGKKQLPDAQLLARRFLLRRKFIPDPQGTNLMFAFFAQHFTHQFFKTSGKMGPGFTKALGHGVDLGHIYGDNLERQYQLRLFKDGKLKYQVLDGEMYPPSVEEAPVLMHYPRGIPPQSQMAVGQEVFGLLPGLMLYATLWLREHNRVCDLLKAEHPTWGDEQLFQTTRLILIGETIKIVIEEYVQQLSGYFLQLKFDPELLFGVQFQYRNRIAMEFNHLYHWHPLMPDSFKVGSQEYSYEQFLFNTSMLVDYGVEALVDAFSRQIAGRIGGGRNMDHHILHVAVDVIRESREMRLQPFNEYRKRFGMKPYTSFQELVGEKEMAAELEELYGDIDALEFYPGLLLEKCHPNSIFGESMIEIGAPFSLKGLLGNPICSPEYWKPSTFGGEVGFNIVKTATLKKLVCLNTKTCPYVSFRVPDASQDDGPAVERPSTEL
Dual specificity mitogen-activated protein kinase kinase 4 (Homo sapiens), sequence (P45985 whole entry): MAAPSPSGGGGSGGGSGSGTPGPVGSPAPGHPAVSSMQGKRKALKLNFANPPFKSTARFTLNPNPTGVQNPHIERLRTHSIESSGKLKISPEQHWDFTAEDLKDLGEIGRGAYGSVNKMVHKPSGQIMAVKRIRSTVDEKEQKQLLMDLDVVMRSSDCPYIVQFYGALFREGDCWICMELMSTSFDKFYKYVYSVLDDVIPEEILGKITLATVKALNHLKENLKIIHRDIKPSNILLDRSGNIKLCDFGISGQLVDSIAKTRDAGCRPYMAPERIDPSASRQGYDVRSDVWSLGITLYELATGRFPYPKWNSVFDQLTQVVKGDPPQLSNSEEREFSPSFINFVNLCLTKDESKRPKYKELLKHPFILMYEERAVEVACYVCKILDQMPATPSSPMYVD
Mitogen-activated protein kinase 3 (Homo sapiens), sequence (P27361 whole entry): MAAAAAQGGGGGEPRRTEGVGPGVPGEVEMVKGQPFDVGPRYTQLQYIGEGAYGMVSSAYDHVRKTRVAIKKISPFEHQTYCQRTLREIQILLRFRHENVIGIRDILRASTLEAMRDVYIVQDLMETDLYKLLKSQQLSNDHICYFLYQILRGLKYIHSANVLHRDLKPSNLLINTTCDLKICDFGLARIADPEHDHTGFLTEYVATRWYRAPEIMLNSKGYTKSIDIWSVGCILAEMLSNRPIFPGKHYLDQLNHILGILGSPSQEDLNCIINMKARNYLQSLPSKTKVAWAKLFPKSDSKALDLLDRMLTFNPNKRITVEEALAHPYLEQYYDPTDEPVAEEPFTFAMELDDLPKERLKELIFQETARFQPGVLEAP

Structure (SMILES): O=C(Nc1ccc2c(c1)B(O)OC2)c1c(C(F)(F)F)ccc(Cl)c1F
- inhibition [1]: inactive
- inhibition [2]: inactive
- AUC(0-t) at 24 h [3]: 43400 ng·h/mL
- inhibition in vivo at 30 mg/kg [4]: 68%
- inhibition [5]: Active
- inhibition [6]: inactive
- inhibition [7]: 62%
- inhibition in vivo at 30 mg/kg [8]: 80%
- IC50 [9]: 190 nM
- inhibition [10]: Active
- inhibition [11]: inactive
- Activity [12]: Non-toxic
- inhibition [13]: inactive
- inhibition [14]: inactive
- half-life [15]: 798 min
- inhibition [16]: inactive
- inhibition [17]: inactive
- inhibition [18]: inactive
- inhibition [19]: inactive
- inhibition [20]: inactive
- inhibition [21]: inactive
- inhibition [22]: inactive
- inhibition [23]: inactive
- inhibition [24]: inactive
- inhibition [25]: inactive
- inhibition [26]: inactive
- inhibition [27]: inactive
- inhibition [28]: inactive
- inhibition [29]: inactive
- Cmax [30]: 5650 ng/mL
- inhibition [31]: inactive
- inhibition [32]: inactive
- inhibition [33]: inactive
- inhibition [34]: inactive
- AUC(0-t) at 24 h [35]: 70100 ng·h/mL
- inhibition [36]: inactive
- inhibition [37]: Dose-dependent effect
- inhibition [38]: inactive
- inhibition [39]: inactive
- inhibition [40]: inactive
- inhibition [41]: inactive
- inhibition in vivo at 10 mg/kg [42]: 60%
- inhibition in vivo at 30 mg/kg [43]: 95%
